Assays:
[1] = Na-solution DAP test: trained panel rates saltiness of compounds in sodium solution; format: in vivo; set-up: key: DAP score; >3.1 indicates saltiness or salt enhancement; settings: single compound in sodium solution; best DAP score of tested concentrations 0.1, 1 and 10 ppm; DAP score greater than 3.1 indicates saltiness or salt enhancement
Description: (§1) Briefly, each individual tested compound was placed in water and in sodium solution to test saltiness and saltiness enhancement potential. Tests in water were executed in a compound concentration of 10 ppm. Tests in sodium solution were executed in compound concentrations of 0.1, 1 and 10 ppm. Two control sodium solutions with known organoleptic salt intensities were provided as references for each test. The test for individual compounds was also conducted using simple broth instead of sodium solution. A number of compound combinations identified from the Na-solution DAP test were used for the broth DAP test. Tests were executed with a trained panel of 9-12 assessors. For Na-solution DAP tests, a DAP score of greater than 3.1 indicates saltiness or salt enhancement. The DAP score can be correlated with a sodium reduction potential by subtracting 3.1 from the DAP score. […] For broth DAP tests, a DAP score of greater than 7.6 indicates saltiness or salt enhancement. The DAP score can be correlated with a sodium reduction potential by subtracting 7.6 from the DAP score.

[2] = Broth DAP test: trained panel rates saltiness of compounds in simple broth; format: in vivo; set-up: key: DAP score; >7.6 indicates saltiness or salt enhancement in broth; settings: single compound in simple broth; best DAP score of tested concentrations 0.1, 1 and 10 ppm; DAP score greater than 7.6 indicates saltiness or salt enhancement
Description: as §1

Row | Compound | DAP in Na-Sol. [1] | DAP in Broth [2]
1 | COc1cc2c(c(OC)c1OC)-c1c(cc(OC)c(OC)c1OC)C[C@H](C)[C@H](C)C2 [Compound 45, Schisandrin A, Deoxyschizandrin] | 3.5 | 8.2
2 | C=CC(C)(O)CC/C=C(\C)C(=O)OC1C(OCC2OC(OC(=O)C34CCC(C)(C)CC3C3=CCC5C6(C)CCC(OC7OC(COC8OCC(O)C(O)C8OC8OCC(O)C(O)C8O)C(O)C(O)C7O)C(C)(C)C6CCC5(C)C3(C)CC4O)C(OC3OC(C)C(OC4OCC(O)C(OC5OCC(O)C(O)C5O)C4O)C(O)C3O)C(OC(=O)/C(C)=C/CCC(C)(O)C=C)C2O)OC(C)C(O)C1O (stereo not drawn) [Compound 35] | 3.7 | 8.1
3 | C[C@]12CC[C@H](O)C[C@H]1CC[C@@H]1[C@@H]2CC[C@]2(C)[C@@H](C3=CC(=O)OC3)CC[C@]12O [Compound 73, Digitoxigenin] | 3.5 | 8.0
4 | COc1cc(C2c3cc4c(cc3CC3COC(=O)C32)OCO4)cc(OC)c1OC (stereo not drawn) [Compound 59, Isoanthricin] | 3.3 | 7.9
5 | Brevifolin [Compound 53] | 3.7 | 8.5
6 | CC1(C)CC[C@]2(C(=O)O)CC[C@]3(C)C(=CCC4[C@@]5(C)C[C@@H](O)[C@H](O)C(C)(C)C5CC[C@]43C)C2C1 (stereo partly drawn) [Compound 42, Maslinic acid, Crategolic acid] | 3.1 | 8.1
7 | O=C(/C=C/C=C/c1ccc2c(c1)OCO2)N1CCCCC1 [Compound 18, Piperine] | 3.8 | 8.1
8 | COc1cc2c(c(OC)c1OC)-c1c(cc3c(c1OC)OCO3)CC(C)C(C)C2 (stereo not drawn) [Compound 46, Schizandrin B] | 3.6 | 7.8
9 | CCCCCCCCC/C=C/C(=O)CCc1ccc(O)c(OC)c1 [Compound 2, [10]-Shogaol] | 3.5 | 7.8
10 | COc1c(OC)c(OC)c2c(c1OC)c(=O)c1ccccc1n2C [Compound 23, Melicopicine] | 2.9 | 8.3
11 | CCCCC/C=C/C=C/C(O)CCCCCCCC(=O)O (stereo not drawn) [Compound 88, Dimorphecolic acid] | 3.2 | 8.0
12 | C=CCCCCCCCCCCCC(CC(O)COC(C)=O)OC(C)=O (stereo not drawn) [Compound 83, 16-Heptadecene-1,2,4-triol, 1,4-diacetate] | 4.2 | 8.1
13 | CC(C)CNC(=O)/C=C/C=C/CCCCCC/C=C/c1ccc2c(c1)OCO2 [Compound 15, Guineensine] | 3.5 | 8.1
14 | C/C=C(\C)C(=O)O[C@H]1[C@H](O)[C@]2(CO)[C@H](O)C[C@]3(C)C(=CCC4[C@@]5(C)CC[C@H](O[C@@H]6O[C@H](C(=O)O)C(O[C@@H]7O[C@H](CO)[C@@H](O)[C@H](O)[C@H]7O)[C@H](O)[C@H]6O[C@@H]6O[C@H](CO)[C@@H](O)[C@H](O)[C@H]6O)[C@](C)(CO)C5CC[C@]43C)[C@@H]2CC1(C)C (stereo partly drawn) [Compound 34, Aesculioside A] | 3.9 | 7.7
15 | COC1CC(OC2CCC3(C=O)C(CCC4C3CCC3(C)C(C5=CC(=O)OC5)CCC43O)C2)OC(C)C1OC1OC(CO)C(O)C(O)C1O (stereo not drawn) [Compound 76, Apobioside] | 3.2 | 8.0
16 | C[C@H]1[C@H](C)CC[C@]2(C(=O)O)CC[C@]3(C)C(=CC[C@@H]4[C@@]5(C)CC[C@H](O)C(C)(C)[C@@H]5CC[C@]43C)[C@H]12 [Compound 43, Ursolic acid] | 3.7 | 8.0
17 | C=CCCCCCCCCCCC[C@H](O)C[C@H](O)CO [Compound 82, 16-Heptadecene-1,2,4-triol; Avocadene] | 3.8 | 8.3
18 | CCC=CC(=O)CCc1ccccc1 [Compound 11, a 1-Ph-4-hepten-3-one] | 2.6 | 8.1
19 | CC/C=C\C/C=C\C/C=C\CCCCCCCC(=O)O [Compound 89, Linolenic acid] | 3.7 | 7.6
20 | C=C[C@@]1(C)CC(=O)C2[C@]3(C)C(C[C@@H](OC(C)=O)[C@@]2(O)C1=O)C(C)(C)[C@H](O)[C@H](OC(C)=O)[C@@H]3OC(=O)c1ccccc1 (stereo partly drawn) [Compound 33, Orthosiphol M] | 3.4 | 7.7
21 | CCCCCC(CC(CCc1ccc(O)c(OC)c1)OC(C)=O)OC(C)=O (stereo not drawn) [Compound 3, [6]-Gingerdiacetate] | 4.1 | 8.8
22 | COc1cc(CC(C)C(C)Cc2ccc(O)c(OC)c2)ccc1O (stereo not drawn) [Compound 49, Dihydrogualaretic acid] | 3.6 | 8.2
23 | CCCCCCCCCCNC(C)=O [Compound 84, N-Decyl acetamide] | 3.8 | 8.1
24 | C=CC(C)(O)CC[C@@]1(C)C2=C([C@H](OC(C)=O)[C@H](OC(C)=O)[C@H]1C)C(C)(C)CCC2 (stereo partly drawn) [Compound 29, Vitetrifolin D] | 3.5 | 8.0

Reference: US10159268B2, “Reduced sodium food products” (GENERAL MILLS, INC., priority 2013, dated 2018)
